Read-outs that look alike come from different tables or passages of the source.
Assays:
[1] = tested on: memory disruption induced by MK-801 in male Long Evans rats; experiment: Novel Object Recognition (NOR) test, memory disruption induced by MK-801; type: in vivo, rat; details: any dose tested, oral
Procedure: In the present study, a memory saving model was used. MK-801 (Dizocilpine), an uncompetitive antagonist of the NMDA receptor was used to cause deficit of recognition memory. sGC stimulators were evaluated for their efficacy to prevent memory impairment induced by MK-801.
Adult male Long-Evans rats (275-299 gram at arrival from Envigo, Indianapolis, IN) were used in this study. Rats were placed in the experimental rooms and assigned unique identification numbers (tail marks). Rats were housed 2 per cage in polycarbonate cages with filter tops and acclimated for at least 7 days prior to testing. […]
NOR test was conducted in an open-field arena (40×40 cm) placed in a sound-attenuated room under dimmed lighting. […] All training and testing trials were video-taped and scored by an observer blind to treatments.
On Days 1 and 2, rats were allowed to freely explore the arena (no objects inside) for a 5-minute habituation period. […] Each rat was placed in the arena facing the same direction at the same position, and the time spent actively exploring the objects during a 3-minute training period (T1) was recorded. […] Each rat was placed back into the test arena in the presence of one familiar object and one novel object for 5 minutes, and the time spent exploring both objects was recorded. […]

[2] = Non-human primate CSF pharmacokinetics (Study B), cisterna magna versus lumbar sampling; type: in vivo, Macaca fascicularis; details: for Kp uu at 3 h / Kp uu at 24 h: female, Cynomolgus macaque, cynomolgus monkey, read-out: geomean ratio of CSF concentration to unbound concentration in plasma (Kp,uu)
From the text: The objective of this study was to investigate the pharmacokinetics of Compound 1-14 after administration of a single […] bolus or oral gavage dose to cynomolgus monkeys on Day 1 and to evaluate differences in pharmacokinetic values when comparing CSF collected at the cisterna magna (as in Example 10A) versus lumbar locations. [table] • Species: Macaca fascicularis • Strain: Cynomolgus macaque • Number of Females: 4 • Age: Adult • Weight: 2.5-4 kg Single doses of Compound I-14 were administered intravenously as a bolus injection of a solution at 0.15 mg/kg and orally by gavage as a suspension at 0.5 mg/kg to a group of four female cynomolgus monkeys in a crossover design. Plasma samples were collected at 0.25 (15 min), 0.5 (30 min), 1, 2, 3, 6, 8, 12, 24, 32, and 48 h following the IV and PO doses. CSF samples were collected at 3 and 24 h for all animals from the cisterna magna in groups 1 and 2 and the lumbar from groups 3 and 4. Sample extracts were prepared by protein precipitation and Compound I-14 concentrations were measured using LC-MS/MS. Pharmacokinetic parameters were calculated.

[3] = CSF (cisterna magna) / unbound plasma, IV bolus 0.15 mg/kg, cisterna magna sampling
[4] = CSF (cisterna magna) / unbound plasma, oral gavage 0.5 mg/kg, cisterna magna sampling
[5] = CSF (lumbar) / unbound plasma, IV bolus 0.15 mg/kg, lumbar sampling
[6] = CSF (lumbar) / unbound plasma, oral gavage 0.5 mg/kg, lumbar sampling

presence of compound in CSF ([2]; IV and PO administration, cisterna magna and lumbar sampling): observed in the CSF at 3 and 24 hours
Kp uu at 3 h [2, 3]: 2 to 3
Kp uu at 3 h [2, 4]: 2 to 3
Kp uu at 24 h [2, 3]: 1 to 2
Kp uu at 24 h [2, 4]: 2 to 3
Kp uu at 3 h [2, 5]: 2 to 3
Kp uu at 3 h [2, 6]: 2 to 3
Kp uu at 24 h [2, 5]: 1 to 2
Kp uu at 24 h [2, 6]: 2 to 3
SMILES: Cc1cc(F)c(Cc2nc(-c3ncc(F)c(O)n3)cn3ccnc23)cc1F [Compound I-14, 5-fluoro-2-(8-(2,5-difluoro-4-methylbenzyl)imidazo[1,2-a]pyrazin-6-yl)pyrimidin-4-ol]
obvious side effects in NOR study [1]: None of the rats in this study showed obvious side effects
